Test results taken from ChEMBL document CHEMBL4130416, “Glycine-replaced derivatives of [Pro3,DLeu9]TL, a temporin L analogue: Evaluation of antimicrobial, cytotoxic and hemolytic activities” (Eur J Med Chem, 2017).
Values after ≈ are worked out from the molar mass of the structure shown. Active and inactive are the calls of the source. The calls are words filed in the database; no cut-off is given here. Where a SMILES comes first, the peptide text is derived from it. [ ]: non-standard residue; d: D form.

Experiments:
HaCaT [1] = assay: Cytotoxicity against human HaCaT cells at 1.56 to 6.25 uM after 24 hrs by MTT assay; format: cell-based
HaCaT [2] = assay: Cytotoxicity against human HaCaT cells at 12.5 uM after 24 hrs by MTT assay relative to control; format: cell-based
[3] = tested on: Staphylococcus epidermidis; assay: Antimicrobial activity against Staphylococcus epidermidis ATCC 12228 after 18 to 20 hrs by microbroth dilution method; format: functional
Escherichia coli [4] = assay: Antimicrobial activity against Escherichia coli D21 after 18 to 20 hrs by microbroth dilution method; format: functional
Pichia kudriavzevii = assay: Antimicrobial activity against Candida krusei ATCC 6258 after 18 to 20 hrs by microbroth dilution method; format: functional
Pseudomonas syringae = assay: Antimicrobial activity against Pseudomonas syringae pv tabaci NCPPB 1918 after 18 to 20 hrs by microbroth dilution method; format: functional, Pseudomonas amygdali pv. tabaci
HaCaT [5] = assay: Cytotoxicity against human HaCaT cells at 25 uM after 24 hrs by MTT assay relative to control; format: cell-based
Priestia megaterium = assay: Antimicrobial activity against Bacillus megaterium Bm11 after 18 to 20 hrs by microbroth dilution method; format: functional
Pseudomonas aeruginosa [6] = assay: Antimicrobial activity against Pseudomonas aeruginosa ATCC 27853 after 18 to 20 hrs by microbroth dilution method; format: functional
Candida albicans [7] = assay: Antimicrobial activity against Candida albicans ATCC 10231 after 18 to 20 hrs by microbroth dilution method; format: functional
Staphylococcus aureus [8] = assay: Antimicrobial activity against Staphylococcus aureus Cowan I after 18 to 20 hrs by microbroth dilution method; format: functional
HaCaT [9] = assay: Cytotoxicity against human HaCaT cells at 50 uM after 24 hrs by MTT assay relative to control; format: cell-based
Acinetobacter baumannii [10] = assay: Antimicrobial activity against Acinetobacter baumannii ATCC 19606 after 18 to 20 hrs by microbroth dilution method; format: functional; conditions: ATCC 19606 = CIP 70.34 = JCM 6841
Klebsiella pneumoniae = assay: Antimicrobial activity against multisensitive Klebsiella pneumoniae after 18 to 20 hrs by microbroth dilution method; format: functional
Candida albicans [11] = assay: Antimicrobial activity against Candida albicans clinical isolate 2 after 18 to 20 hrs by microbroth dilution method; format: functional
Acinetobacter baumannii [12] = assay: Antimicrobial activity against Acinetobacter baumannii ATCC 19606 assessed as induction of membrane-perturbation at MIC measured every minute for 120 mins by SYTOX green fluorescence dye influx assay; format: functional, organism-based; conditions: ATCC 19606 = CIP 70.34 = JCM 6841
Staphylococcus aureus [13] = assay: Antimicrobial activity against multisensitive Staphylococcus aureus after 18 to 20 hrs by microbroth dilution method; format: functional
Staphylococcus aureus [14] = assay: Antimicrobial activity against macrolid resistant Staphylococcus aureus after 18 to 20 hrs by microbroth dilution method; format: functional
[15] = Metabolic stability in 90% human serum assessed as parent compound remaining at […] after 120 mins by RP-UHPLC analysis; format: ADME, cell-free; conditions: read-out: Stability
[16] = tested on: Staphylococcus epidermidis; assay: Antimicrobial activity against Staphylococcus epidermidis ATCC 12228 assessed as membrane-perturbation measured every minute for 120 mins by SYTOX green fluorescence dye influx assay; format: functional, organism-based
Pseudomonas aeruginosa [17] = assay: Antimicrobial activity against multisensitive Pseudomonas aeruginosa after 18 to 20 hrs by microbroth dilution method; format: functional
Candida albicans [18] = assay: Antimicrobial activity against Candida albicans ATCC 10231 assessed as induction of membrane-perturbation at MIC measured every minute for 10 mins by SYTOX green fluorescence dye influx assay; format: functional, organism-based
Escherichia coli [19] = assay: Antimicrobial activity against multisensitive Escherichia coli clinical isolate 2 after 18 to 20 hrs by microbroth dilution method; format: functional
Staphylococcus aureus [20] = assay: Antimicrobial activity against beta-lactamase resistant Staphylococcus aureus after 18 to 20 hrs by microbroth dilution method; format: functional
Escherichia coli [21] = assay: Antimicrobial activity against multisensitive Escherichia coli clinical isolate 1 after 18 to 20 hrs by microbroth dilution method; format: functional
Staphylococcus aureus [22] = assay: Antimicrobial activity against methicillin resistant Staphylococcus aureus clinical isolate 1 after 18 to 20 hrs by microbroth dilution method; format: functional
[23] = Hemolytic activity against human erythrocytes at 25 uM after 40 mins relative to control; format: ADME, cell-based, Erythrocyte; conditions: read-out: Activity
Candida albicans [24] = assay: Antimicrobial activity against Candida albicans clinical isolate 1 after 18 to 20 hrs by microbroth dilution method; format: functional
Staphylococcus aureus [25] = assay: Antimicrobial activity against methicillin resistant Staphylococcus aureus clinical isolate 2 after 18 to 20 hrs by microbroth dilution method; format: functional
[26] = Hemolytic activity against human erythrocytes at 12.5 uM after 40 mins relative to control; format: ADME, cell-based, Erythrocyte; conditions: read-out: Activity
[27] = Hemolytic activity against human erythrocytes at 3.125 uM after 40 mins relative to control; format: ADME, cell-based, Erythrocyte; conditions: read-out: Activity
[28] = Hemolytic activity against human erythrocytes at 6.25 uM after 40 mins relative to control; format: ADME, cell-based, Erythrocyte; conditions: read-out: Activity
[29] = Hemolytic activity against human erythrocytes at 50 uM after 40 mins relative to control; format: ADME, cell-based, Erythrocyte; conditions: read-out: Activity
HaCaT [30] = assay: Cytotoxicity against human HaCaT cells at 6.25 uM after 24 hrs by MTT assay relative to control; format: cell-based

| Structure (SMILES) | Activity (HaCaT [1]) | Activity (HaCaT [2]) [%] | MIC [3] [µM] | MIC (Escherichia coli [4]) [µM] | MIC (Pichia kudriavzevii) [µM] | MIC (Pseudomonas syringae) [µM] | Activity (HaCaT [5]) [%] | MIC (Priestia megaterium) [µM] | MIC (Pseudomonas aeruginosa [6]) [µM] | MIC (Candida albicans [7]) [µM] | MIC (Staphylococcus aureus [8]) [µM] | Activity (HaCaT [9]) [%] | MIC (Acinetobacter baumannii [10]) [µM] | other results |
| --- | --- | --- | --- | --- | --- | --- | --- | --- | --- | --- | --- | --- | --- | --- |
| CC[C@H](C)[C@H](NC(=O)[C@H](CCCNC(=N)N)NC(=O)[C@@H]1CCCN1C(=O)[C@@H](CC(C)C)NC(=O)[C@H](Cc1ccccc1)NC(=O)[C@H](CCCCN)NC(=O)[C@H](CO)NC(=O)[C@H](Cc1ccccc1)NC(=O)[C@H](Cc1c[nH]c2ccccc12)NC(=O)[C@@H]1CCCN1C(=O)[C@@H](NC(=O)[C@@H](N)Cc1ccccc1)C(C)C)C(=O)N[C@@H](CC(C)C)C(N)=O (H-FVPWFSKF[dL]PRIL-NH2) | Non-Toxic | 16.15 | 3.12 (≈ 5.15 µg/mL) | 25 (≈ 41.2 µg/mL) | 1.56 (≈ 2.57 µg/mL) | 12.5 (≈ 20.6 µg/mL) | 77.06 | 1.56 (≈ 2.57 µg/mL) | 50 (≈ 82.5 µg/mL) | 1.56 (≈ 2.57 µg/mL) | 3.12 (≈ 5.15 µg/mL) | 96.61 | 6.25 (≈ 10.3 µg/mL) | – |
| CC[C@H](C)C(NC(=O)[C@H](CCCNC(=N)N)NC(=O)[C@@H](CCCCN)NC(=O)[C@@H](CC(C)C)NC(=O)[C@H](Cc1ccccc1)NC(=O)[C@H](CCCCN)NC(=O)[C@H](CO)NC(=O)[C@H](Cc1ccccc1)NC(=O)[C@H](Cc1c[nH]c2ccccc12)NC(=O)[C@@H]1CCCN1C(=O)[C@@H](NC(=O)[C@@H](N)Cc1ccccc1)C(C)C)C(=O)N[C@@H](CC(C)C)C(N)=O (single isomer, unassigned) | Non-Toxic | 0 | 3.12 (≈ 5.25 µg/mL) | 12.5 (≈ 21 µg/mL) | 1.56 (≈ 2.62 µg/mL) | 12.5 (≈ 21 µg/mL) | 28.22 | 3.12 (≈ 5.25 µg/mL) | 12.5 (≈ 21 µg/mL) | 1.56 (≈ 2.62 µg/mL) | 12.5 (≈ 21 µg/mL) | 87.9 | 6.25 (≈ 10.5 µg/mL) | MIC (Klebsiella pneumoniae): 50 µM (≈ 84 µg/mL); MIC (Candida albicans [11]): 12.5 µM (≈ 21 µg/mL); Activity (Acinetobacter baumannii [12]): Active; MIC (Staphylococcus aureus [13]): 12.5 µM (≈ 21 µg/mL); MIC (Staphylococcus aureus [14]): 25 µM (≈ 42 µg/mL); remaining at 2 h [15]: 40%; Activity [16]: Active; MIC (Pseudomonas aeruginosa [17]): > 50 µM; Activity (Candida albicans [18]): Active; MIC (Escherichia coli [19]): 25 µM (≈ 42 µg/mL); MIC (Staphylococcus aureus [20]): 25 µM (≈ 42 µg/mL); MIC (Escherichia coli [21]): 25 µM (≈ 42 µg/mL); MIC (Staphylococcus aureus [22]): 25 µM (≈ 42 µg/mL); hemolysis at 40 min, 25 µM [23]: 5%; MIC (Candida albicans [24]): 12.5 µM (≈ 21 µg/mL); MIC (Staphylococcus aureus [25]): 12.5 µM (≈ 21 µg/mL); hemolysis at 40 min, 12.5 µM [26]: 5%; hemolysis at 40 min, 3.125 µM [27]: 0%; hemolysis at 40 min, 6.25 µM [28]: 1%; hemolysis at 40 min, 50 µM [29]: 7% |
| CC[C@H](C)[C@H](NC(=O)[C@H](CCCNC(=N)N)NC(=O)[C@H]1CCCN1C(=O)[C@@H](CC(C)C)NC(=O)[C@H](Cc1ccccc1)NC(=O)[C@H](CCCCN)NC(=O)[C@H](CO)NC(=O)[C@H](Cc1ccccc1)NC(=O)[C@H](Cc1c[nH]c2ccccc12)NC(=O)[C@@H]1CCCN1C(=O)[C@@H](NC(=O)[C@@H](N)Cc1ccccc1)C(C)C)C(=O)N[C@@H](CC(C)C)C(N)=O (H-FVPWFSKF[dL][dP]RIL-NH2) | Non-Toxic | 0 | 25 (≈ 41.2 µg/mL) | 50 (≈ 82.5 µg/mL) | 3.12 (≈ 5.15 µg/mL) | 50 (≈ 82.5 µg/mL) | 0 | 3.12 (≈ 5.15 µg/mL) | > 50 | 3.12 (≈ 5.15 µg/mL) | > 50 | 0 | 50 (≈ 82.5 µg/mL) | – |
| CC[C@H](C)[C@H](NC(=O)[C@H](CCCNC(=N)N)NC(=O)[C@@H]1C[C@@H](O)CN1C(=O)[C@@H](CC(C)C)NC(=O)[C@H](Cc1ccccc1)NC(=O)[C@H](CCCCN)NC(=O)[C@H](CO)NC(=O)[C@H](Cc1ccccc1)NC(=O)[C@H](Cc1c[nH]c2ccccc12)NC(=O)[C@@H]1CCCN1C(=O)[C@@H](NC(=O)[C@@H](N)Cc1ccccc1)C(C)C)C(=O)N[C@@H](CC(C)C)C(N)=O | Non-Toxic | 2.76 | 6.25 (≈ 10.4 µg/mL) | 25 (≈ 41.6 µg/mL) | 1.56 (≈ 2.6 µg/mL) | 12.5 (≈ 20.8 µg/mL) | 84.72 | 1.56 (≈ 2.6 µg/mL) | 50 (≈ 83.3 µg/mL) | 3.12 (≈ 5.2 µg/mL) | 6.25 (≈ 10.4 µg/mL) | 98.81 | 6.25 (≈ 10.4 µg/mL) | – |
| CC[C@H](C)[C@H](NC(=O)[C@H](CCCNC(=N)N)NC(=O)[C@@H](Cc1c[nH]c2ccccc12)NC(=O)[C@@H](CC(C)C)NC(=O)[C@H](Cc1ccccc1)NC(=O)[C@H](CCCCN)NC(=O)[C@H](CO)NC(=O)[C@H](Cc1ccccc1)NC(=O)[C@H](Cc1c[nH]c2ccccc12)NC(=O)[C@@H]1CCCN1C(=O)[C@@H](NC(=O)[C@@H](N)Cc1ccccc1)C(C)C)C(=O)N[C@@H](CC(C)C)C(N)=O (H-FVPWFSKF[dL][dW]RIL-NH2) | – | 19.21 | 1.56 (≈ 2.71 µg/mL) | 25 (≈ 43.5 µg/mL) | 3.12 (≈ 5.43 µg/mL) | 3.12 (≈ 5.43 µg/mL) | 35.34 | 3.12 (≈ 5.43 µg/mL) | 50 (≈ 86.9 µg/mL) | 3.12 (≈ 5.43 µg/mL) | 3.12 (≈ 5.43 µg/mL) | 96.77 | 3.12 (≈ 5.43 µg/mL) | Activity (HaCaT [30]): 15% |
